The test system of data set [1] is Proteus mirabilis MB No. 3126. Nature of the data set: Antibiotic spectrum profile, agar zone of inhibition. The conditions noted are these: MBNO.3126, 0.015 ml of 9.5 μg/ml aqueous solution, 25° C., read-out: Inhib. Zone Diam. The class given is cell-based.
Data set [2] has as its system Pseudomonas stutzeri ATCC 11607. The data set is described as above. The note with it: Stutzerimonas stutzeri, ATCC11607, 0.015 ml of 9.5 μg/ml aqueous solution, 25° C., read-out: Inhib. Zone Diam. It is filed as cell-based.
In data set [3] the test system is Escherichia coli MB No. 1418. Described as above. It is filed as cell-based. The note with it: MBNO.1418, 0.015 ml of 9.5 μg/ml aqueous solution, 25° C., read-out: Inhib. Zone Diam.
The subject of data set [4] is Alcaligenes faecalis ATCC 213. Described as above. It is filed as cell-based. The note with it: ATCC213, 0.015 ml of 9.5 μg/ml aqueous solution, 25° C., read-out: Inhib. Zone Diam.
Data set [5] concerns Staphylococcus aureus MB No. 698. The data set is described as above. The note with it: MBNO.698, 0.015 ml of 9.5 μg/ml aqueous solution, 25° C., read-out: Inhib. Zone Diam. The class given is cell-based.
Data set [6] concerns Streptococcus faecalis MB No. 753. The description is as above. It is filed as cell-based. The conditions noted are these: Enterococcus faecalis, MBNO.753, 0.015 ml of 9.5 μg/ml aqueous solution, 25° C., read-out: Inhib. Zone Diam.
A short description of data set [7]: Electrophoresis at neutral pH. The class given is physicochemical. The note with it: 50 volts/cm, 0.03 M potassium phosphate buffer, pH 7.1, 30 minutes. Here is the method:
Antibiotic 890A10 is an acidic substance which migrates toward the positive pole on electrophoresis at neutral pH. At a gradient of 50 volts/cm. in 0.03 M potassium phosphate buffer, pH 7.1, the antibiotic moves 8.0 cm. in 30 minutes, compared with a movement of 4.0 cm. for 890A1. The disodium salt is a white or slightly yellow powder as lyophilized from aqueous solution. Under acidic conditions in aqueous solution, the antibiotic is unstable, and the free acid form has not been isolated.

In data set [8] the test system is Protcus vulgaris MB No. 1012. Put plainly: Antibiotic spectrum profile, agar zone of inhibition. It is filed as cell-based. The note with it: 0.015 ml of 9.5 μg/ml aqueous solution, 25° C., read-out: Inhib. Zone Diam.
The test system of data set [9] is Staphylococcus aureus ATCC 6538 P. Described as above. The class given is cell-based. The conditions noted are these: ATCC6538, 0.015 ml of 9.5 μg/ml aqueous solution, 25° C., read-out: Inhib. Zone Diam.
Data set [10] deals with Brucella bronchiseptica ATCC 4617. Nature of the data set: microbe, parasite or virus in culture. The note with it: Bordetella bronchiseptica, ATCC4617, read-out: Inhib. Zone Diam. The class given is cell-based.
The subject of data set [11] is Proteus vulgaris ATCC 21100. Put plainly: Antibiotic spectrum profile, agar zone of inhibition. The class given is cell-based. The note with it: ATCC21100, 0.015 ml of 9.5 μg/ml aqueous solution, 25° C., read-out: Inhib. Zone Diam.
In data set [12] the test system is Vibrio percolans ATCC 8461. Put plainly: Bioassay, agar plate disc-diffusion, 890A1 standard. The class given is cell-based. The note with it: measured against standard of antibiotic 890A1 (defined as 250 units per HAEA300 unit). How it is done:
An agar plate disc-diffusion method is employed using Vibrio percolans ATCC 8461 as tester organism. A purified sample of antibiotic 890A1 is used as standard. Antibiotic 890A1 is prepared according to the procedure set forth in Example 6.
Plates containing Vibrio percolans ATCC 8461 are prepared as follows:
A lyophilized culture of Vibrio percolans ATCC 8461 is suspended in 15 ml. of a sterilized medium containing 8 g./liter of Difco Nutrient Broth and 2 g./liter of yeast extract in distilled water "nutrient broth-yeast extract" (herein after designated NBYE). The culture is incubated overnight on a rotary shaker at 28° C. This culture is used to inoculate the surface of slants containing 1.5% agar in NBYE, and the inoculated slants are incubated overnight at 28° C., and then stored in a refrigerator. […]
Filter paper discs of one-half inch diameter are dipped into the solution to be assayed, and are placed on the agar. […] The diameter of the zone of inhibition is measured after appropriate incubation (12-14 hours at 25° C.). […]
Calculations of potencies proceed as follows: a slope is determined by measuring the zone diameters of a solution of antibiotic 890A10 and of a fourfold dilution (in KPB) of this solution. Two discs of each concentration are assayed on a single plate, and the average zone size at each concentration is determined. […] Potencies are then calculated by the formula: [formula] […]

The subject of data set [13] is Pseudomonas aeruginosa MB No. 2824. Nature of the data set: Antibiotic spectrum profile, agar zone of inhibition. It is filed as cell-based. The note with it: MBNO.2824, 0.015 ml of 9.5 μg/ml aqueous solution, 25° C., read-out: Inhib. Zone Diam.
Data set [14] deals with Vibrio percolans ATCC 8461. The data set is described as above. It is filed as cell-based. The note with it: Comamonas terrigena, ATCC8461, 0.015 ml of 9.5 μg/ml aqueous solution, 25° C., read-out: Inhib. Zone Diam.
The test system of data set [15] is Streptococcus agalactiae MB No. 2875. The data set is described as above. The conditions noted are these: MBNO.2875, 0.015 ml of 9.5 μg/ml aqueous solution, 25° C., read-out: Inhib. Zone Diam. The class given is cell-based.

As to `CC(=O)NCCSC1=C(C(=O)O)N2C(=O)C(C(C)OS(=O)(=O)O)C2C1` (stereo not drawn) [Antibiotic 890A10], the zone of inhibition at 9.5 µg/mL in [1] stood at 29 mm; in data set [2] it was 0 mm; in [3], 25 mm; in [4], 24 mm; in [5] it was 23 mm; in [6] it was 0 mm. Moreover, the zone of inhibition at 9.5 µg/mL in data set [8] came out at 19 mm; in data set [9], 20 mm; in [10], 0 mm; in data set [11] it was 30 mm; in data set [13] it was 0 mm; in [14], 33 mm. In data set [15], the zone of inhibition at 9.5 µg/mL stood at 29 mm. In data set [7], the “movement toward the positive pole on electrophoresis” value stood at 8.0 cm. Further, the “bioassay units per HAEA300 unit” value in data set [12] was 174 bioassay units per HAEA300 unit.
